ChEMBL document CHEMBL1201862, “PubChem BioAssay data set” (2004)
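Grown in 96-well plates, cells were treated for 48 hours with each compound at five concentrations. Insufficient inhibition: endpoint recorded as highest concentration tested. At the GI50, growth is halved.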 Calls of active or inactive are those of the source. Rule as the data show it: active = GI50 up to about 1.1 µM and inactive = higher.

Tests used:
Experiment in all cases: growth of human tumour cells (NCI), 48 h
[1] = system: 786-0
[2] = system: A498
[3] = system: A549
[4] = system: ACHN
[5] = system: BT-549
[6] = system: CAKI-1
[7] = system: CCRF-CEM
[8] = system: COLO 205
[9] = system: DU-145
[10] = system: EKVX
[11] = system: HCC 2998
[12] = system: HCT-116
[13] = system: HCT-15
[14] = system: HL-60
[15] = system: HOP-62
[16] = system: HOP-92
[17] = system: HT-29
[18] = system: Hs-578T
[19] = system: IGROV-1
[20] = system: KM12
[21] = system: LOX IMVI
[22] = system: M14
[23] = system: MCF7
[24] = system: MDA-MB-231
[25] = system: MDA-MB-435
[26] = system: MDA-N
[27] = system: Malme-3M
[28] = system: NCI-H226
[29] = system: NCI-H23
[30] = system: NCI-H460
[31] = system: NCI-H522
[32] = system: NCI/ADR-RES
[33] = system: OVCAR-3
[34] = system: OVCAR-4
[35] = system: OVCAR-5
[36] = system: OVCAR-8
[37] = system: PC-3
[38] = system: RPMI-8226
[39] = system: RXF 393
[40] = system: SF-268
[41] = system: SF-295
[42] = system: SK-MEL-28
[43] = system: SK-MEL-2
[44] = system: SK-MEL-5
[45] = system: SK-OV-3
[46] = system: SN12C
[47] = system: SNB-19
[48] = system: SNB-75
[49] = system: SW-620
[50] = system: T47D
[51] = system: TK-10
[52] = system: U-251
[53] = system: UACC-257
[54] = system: UACC-62
[55] = system: UO-31
[56] = system: K562
[57] = system: MOLT-4
[58] = system: SF-539

## CC(C)C(=O)Cc1ccc2ccccc2n1
[1]
  GI50: > 100 µM (inactive)
[2]
  GI50: > 100 µM (inactive)
[3]
  GI50: > 100 µM (inactive)
[4]
  GI50: > 100 µM (inactive)
[5]
  GI50: > 100 µM (inactive)
[6]
  GI50: > 100 µM (inactive)
[7]
  GI50: > 100 µM (inactive)
[8]
  GI50: > 100 µM (inactive)
[9]
  GI50: > 100 µM (inactive)
[10]
  GI50: 83.4 µM (inactive)
[11]
  GI50: > 100 µM (inactive)
[12]
  GI50: 95.5 µM (inactive)
[13]
  GI50: > 100 µM
[14]
  GI50: > 100 µM (inactive)
[15]
  GI50: > 100 µM (inactive)
[16]
  GI50: > 100 µM (inactive)
[17]
  GI50: > 100 µM (inactive)
[18]
  GI50: > 100 µM (inactive)
[19]
  GI50: 73.5 µM (inactive)
[20]
  GI50: > 100 µM (inactive)
[21]
  GI50: > 100 µM (inactive)
[22]
  GI50: > 100 µM (inactive)
[23]
  GI50: > 100 µM (inactive)
[24]
  GI50: > 100 µM (inactive)
[25]
  GI50: 70 µM (inactive)
[26]
  GI50: 55.2 µM (inactive)
[27]
  GI50: > 100 µM (inactive)
[28]
  GI50: > 100 µM (inactive)
[29]
  GI50: > 100 µM (inactive)
[30]
  GI50: > 100 µM (inactive)
[31]
  GI50: 50.5 µM (inactive)
[32]
  GI50: > 100 µM (inactive)
[33]
  GI50: > 100 µM (inactive)
[34]
  GI50: > 100 µM (inactive)
[35]
  GI50: > 100 µM (inactive)
[36]
  GI50: > 100 µM (inactive)
[37]
  GI50: 89.7 µM (inactive)
[38]
  GI50: 0.097 µM (active)
[39]
  GI50: > 100 µM (inactive)
[40]
  GI50: > 100 µM (inactive)
[41]
  GI50: > 100 µM (inactive)
[42]
  GI50: > 100 µM (inactive)
[43]
  GI50: > 100 µM (inactive)
[44]
  GI50: > 100 µM (inactive)
[45]
  GI50: > 100 µM (inactive)
[46]
  GI50: > 100 µM (inactive)
[47]
  GI50: > 100 µM (inactive)
[48]
  GI50: > 100 µM (inactive)
[49]
  GI50: > 100 µM (inactive)
[50]
  GI50: > 100 µM (inactive)
[51]
  GI50: > 100 µM (inactive)
[52]
  GI50: > 100 µM (inactive)
[53]
  GI50: > 100 µM (inactive)
[54]
  GI50: > 100 µM (inactive)
[55]
  GI50: > 100 µM (inactive)

## CC(C)CCNc1ncnc2[nH]ncc12
[1]
  GI50: > 100 µM (inactive)
[2]
  GI50: 45 µM (inactive)
[3]
  GI50: > 100 µM (inactive)
[4]
  GI50: 68.9 µM (inactive)
[5]
  GI50: > 100 µM (inactive)
[6]
  GI50: 98.6 µM (inactive)
[8]
  GI50: 63.4 µM (inactive)
[9]
  GI50: > 100 µM (inactive)
[10]
  GI50: 26.4 µM (inactive)
[11]
  GI50: > 100 µM (inactive)
[12]
  GI50: > 100 µM (inactive)
[13]
  GI50: > 100 µM
[14]
  GI50: > 100 µM (inactive)
[15]
  GI50: 96.6 µM (inactive)
[16]
  GI50: 34.2 µM (inactive)
[17]
  GI50: > 100 µM (inactive)
[18]
  GI50: 46.7 µM (inactive)
[19]
  GI50: > 100 µM (inactive)
[56]
  GI50: 81.8 µM (inactive)
[20]
  GI50: 48.6 µM (inactive)
[21]
  GI50: 91.2 µM (inactive)
[22]
  GI50: > 100 µM (inactive)
[23]
  GI50: 72.8 µM (inactive)
[24]
  GI50: > 100 µM (inactive)
[25]
  GI50: 97.5 µM (inactive)
[26]
  GI50: 64.7 µM (inactive)
[57]
  GI50: 65.6 µM (inactive)
[27]
  GI50: > 100 µM (inactive)
[28]
  GI50: 60.3 µM (inactive)
[29]
  GI50: > 100 µM (inactive)
[30]
  GI50: > 100 µM (inactive)
[31]
  GI50: 59.4 µM (inactive)
[32]
  GI50: 77.4 µM (inactive)
[33]
  GI50: > 100 µM (inactive)
[34]
  GI50: > 100 µM (inactive)
[35]
  GI50: 49.4 µM (inactive)
[36]
  GI50: > 100 µM (inactive)
[37]
  GI50: > 100 µM (inactive)
[38]
  GI50: 34 µM (inactive)
[39]
  GI50: > 100 µM (inactive)
[40]
  GI50: > 100 µM (inactive)
[41]
  GI50: 52.1 µM (inactive)
[42]
  GI50: > 100 µM (inactive)
[43]
  GI50: > 100 µM (inactive)
[44]
  GI50: 36.6 µM (inactive)
[45]
  GI50: > 100 µM (inactive)
[46]
  GI50: > 100 µM (inactive)
[47]
  GI50: > 100 µM (inactive)
[48]
  GI50: > 100 µM (inactive)
[49]
  GI50: > 100 µM (inactive)
[50]
  GI50: 45.7 µM (inactive)
[51]
  GI50: > 100 µM (inactive)
[52]
  GI50: > 100 µM (inactive)
[53]
  GI50: 32 µM (inactive)
[54]
  GI50: > 100 µM (inactive)
[55]
  GI50: > 100 µM (inactive)

## Oc1[nH]c(NCc2ccc(Cl)cc2)nc2ncnc1-2
[1]
  GI50: > 100 µM (inactive)
[2]
  GI50: > 100 µM (inactive)
[3]
  GI50: > 100 µM (inactive)
[4]
  GI50: > 100 µM (inactive)
[5]
  GI50: > 100 µM (inactive)
[6]
  GI50: > 100 µM (inactive)
[7]
  GI50: > 100 µM (inactive)
[8]
  GI50: > 100 µM (inactive)
[9]
  GI50: > 100 µM (inactive)
[10]
  GI50: > 100 µM (inactive)
[11]
  GI50: > 100 µM (inactive)
[12]
  GI50: > 100 µM (inactive)
[13]
  GI50: > 100 µM
[15]
  GI50: > 100 µM (inactive)
[16]
  GI50: > 100 µM (inactive)
[17]
  GI50: > 100 µM (inactive)
[18]
  GI50: 44.8 µM (inactive)
[19]
  GI50: > 100 µM (inactive)
[56]
  GI50: > 100 µM (inactive)
[20]
  GI50: > 100 µM (inactive)
[21]
  GI50: > 100 µM (inactive)
[22]
  GI50: > 100 µM (inactive)
[23]
  GI50: 87.1 µM (inactive)
[24]
  GI50: > 100 µM (inactive)
[25]
  GI50: > 100 µM (inactive)
[26]
  GI50: > 100 µM (inactive)
[57]
  GI50: > 100 µM (inactive)
[27]
  GI50: > 100 µM (inactive)
[28]
  GI50: > 100 µM (inactive)
[29]
  GI50: > 100 µM (inactive)
[30]
  GI50: > 100 µM (inactive)
[31]
  GI50: 30.3 µM (inactive)
[32]
  GI50: > 100 µM (inactive)
[33]
  GI50: > 100 µM (inactive)
[34]
  GI50: > 100 µM (inactive)
[35]
  GI50: > 100 µM (inactive)
[36]
  GI50: > 100 µM (inactive)
[37]
  GI50: > 100 µM (inactive)
[38]
  GI50: > 100 µM (inactive)
[39]
  GI50: > 100 µM (inactive)
[40]
  GI50: > 100 µM (inactive)
[41]
  GI50: > 100 µM (inactive)
[58]
  GI50: > 100 µM (inactive)
[43]
  GI50: > 100 µM (inactive)
[44]
  GI50: > 100 µM (inactive)
[45]
  GI50: > 100 µM (inactive)
[46]
  GI50: > 100 µM (inactive)
[47]
  GI50: > 100 µM (inactive)
[48]
  GI50: > 100 µM (inactive)
[49]
  GI50: > 100 µM (inactive)
[50]
  GI50: > 100 µM (inactive)
[51]
  GI50: > 100 µM (inactive)
[52]
  GI50: > 100 µM (inactive)
[53]
  GI50: > 100 µM (inactive)
[54]
  GI50: > 100 µM (inactive)
[55]
  GI50: > 100 µM (inactive)
